Values of other authors in patent publication US20170304164A1, “COMPOSITIONS, APPARATUS AND METHODS FOR MONITORING AND IMPROVING ORAL HEALTH” (Berkeley NOX Limited, priority 2016, published 2017).

Experiments:
Desulfovibrio spp. = details: 0.2 mM nitrate
Streptococcus mutans = details: 0.2 mM nitrite, acidity levels below pH 7
Fusobacterium nucleatum = details: under acidic conditions
Eikenella corrodens = details: under acidic conditions
Porphyromonas gingivalis = details: under acidic conditions

Structure (SMILES): O=[N+]([O-])O [nitrate]
- growth (Desulfovibrio spp.): growth is inhibited

Structure (SMILES): O=NO [nitrite]
- effect on bacteria (Streptococcus mutans): effective complete killing
- growth (Fusobacterium nucleatum): inhibited the growth
- growth (Eikenella corrodens): inhibited the growth
- growth (Porphyromonas gingivalis): inhibited the growth
